Data reported in patent publication US8722649B2, “Alpha-chloro and alpha-bromo phosphonate analogs of lysophosphatidic acid and methods of making and using thereof” (University of Utah Research Foundation, priority 2007, dated 2014).
Read-outs that look alike come from different tables or passages of the source.

Experiments:
[1] = target: T1, human LPA4 (Homo sapiens, UniProt Q99677); assay: Ca2+ mobilization assay, LPA4 in CHO cells; type: cell-based; details: for EC50: CHO cells stably expressing LPA4, agonist mode; for inhibition at 30 µM: CHO, at 30 μM (400 nM LPA), read-out: LPA4 Inhibition; for LPA4 (Emax): Emax = (maximal efficacy of compound/maximal efficacy of LPA 18:1) × 100; for LPA4 ligand type: agonist/antagonist in words
T1 construct: expressed in transfected cells
T1 sequence (Q99677 whole entry): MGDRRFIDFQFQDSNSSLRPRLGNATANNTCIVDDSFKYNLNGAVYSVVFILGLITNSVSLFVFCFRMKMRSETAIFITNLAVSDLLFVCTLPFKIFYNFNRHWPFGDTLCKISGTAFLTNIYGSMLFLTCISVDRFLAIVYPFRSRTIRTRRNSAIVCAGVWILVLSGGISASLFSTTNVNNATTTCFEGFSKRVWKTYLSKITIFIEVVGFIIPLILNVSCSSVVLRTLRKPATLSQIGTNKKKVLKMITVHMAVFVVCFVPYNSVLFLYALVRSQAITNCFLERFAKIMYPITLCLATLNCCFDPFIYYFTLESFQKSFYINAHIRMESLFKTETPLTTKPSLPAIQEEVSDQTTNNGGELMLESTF
Description: (§1) Receptor activation using Ca^2+ mobilization assay for diastereomers of 1 (also represented as 19b). The rat hepatoma (RH7777) cell lines individually expressing either LPA1, LPA2, LPA3 or LPA5 receptors and Chinese hamster ovary (CHO) cell line were analyzed to examine agonism and antagonism. […] CHO cells stably expressing either vector or LPA4 were kindly gifted from Dr. Shimizu (University of Tokyo, Tokyo, Japan).
Stable transformants of LPA4. CHO cells stably expressing either vector or LPA4 were plated on non-coated 96 well plates at a density of 4×10^4 cells/well and cultured overnight. The following day, cells were loaded with Fura-2 AM for 1 h in modified Krebs buffer containing 2% (v/v) pluronic acid and 2.5 mM probenecid.
After incubating the cells with Fura-2 AM, the cells were rinsed with Krebs buffer and changes in the intracellular Ca^2+ concentration were monitored by determining the ratio of emitted light intensities at 520 nm in response to excitation at 340 and 380 nm using FLEXstation II (Molecular Devices, Sunnyvale, Calif.). Each well was monitored for 80-120 sec. For testing agonist activity of the compounds, the test compounds were added automatically after 15 sec of baseline measurement. […] Each test was performed in quadruplicate. EC50, IC50, and Ki values were calculated by fitting a sigmoid function to data points with the nonlinear curve-fitting feature of KaleidaGraph (Synergy Software, Essex Junction, Vt.).
Receptor activation using Ca^2+ mobilization assay. The assay for mobilization of intracellular Ca^2+ was performed as described. Briefly, rat hepatoma RH7777 cells stably expressing human LPA1, LPA2, or LPA3, and CHO cells stably expressing LPA4, were loaded with Fura-2 AM (Molecular Probes). Using a FLEXStation (Molecular Devices, Sunnyvale, Calif.), changes in intracellular Ca^2+ concentration were monitored. Ligand-induced changes in fluorescence were monitored for 80-120 seconds. Ca^2+ transients were quantified automatically by calculating the difference between maximum and baseline ratio values for each sample. […] Each test was performed in quadruplicate. EC50, IC50, and Ki values were calculated as described. The ligand properties of the compounds were evaluated using Ca^2+ mobilization assay for assessing the activation/inhibition of LPA1, LPA2, and LPA3 expressed in RH7777 cells and LPA4 expressed in CHO cells.

[2] = target: T2, human LPA1 (Homo sapiens, UniProt Q92633); assay: Ca2+ mobilization assay, LPA1; type: cell-based; details: for EC50: RH7777 cells stably expressing LPA1, agonist mode; for LPA1 (Emax): Emax = (maximal efficacy of compound/maximal efficacy of LPA 18:1) × 100; for LPA1 ligand type: agonist/antagonist in words
T2 construct: expressed in transfected cells
T2 sequence (Q92633 whole entry): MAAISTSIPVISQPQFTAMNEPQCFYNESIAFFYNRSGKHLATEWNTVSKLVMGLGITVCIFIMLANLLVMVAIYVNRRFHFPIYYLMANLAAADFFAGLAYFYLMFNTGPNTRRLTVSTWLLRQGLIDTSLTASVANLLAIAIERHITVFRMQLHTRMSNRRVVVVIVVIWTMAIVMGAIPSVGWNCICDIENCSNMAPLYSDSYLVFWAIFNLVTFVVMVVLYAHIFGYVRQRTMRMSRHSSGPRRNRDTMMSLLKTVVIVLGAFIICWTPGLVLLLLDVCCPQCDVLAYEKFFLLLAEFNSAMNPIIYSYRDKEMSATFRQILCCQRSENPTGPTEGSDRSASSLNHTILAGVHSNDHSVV
Description: as §1
Stable transformants of LPA1/2/3 receptors. RH7777 cells stably expressing each receptor were plated onto poly-L-lysine (PLL) (0.1 mg/mL)-coated black-wall clear-bottom 96-well plates (Corning Incorporated Life Sciences, Acton, Mass.) at a density of 5×10^4 cells/well and cultured overnight. The following day, the culture medium was replaced with modified Krebs buffer (120 mM NaCl, 5 mM KCl, 0.62 mM MgSO4, 1.8 mM CaCl2, 10 mM HEPES, 6 mM glucose, pH 7.4), and the cells were serum starved for 6 h. Subsequently, cells were loaded with Fura-2 AM (Invitrogen, Carlsbad, Calif.) for 35 min in modified Krebs buffer containing 2% (v/v) pluronic acid.
After incubating the cells with Fura-2 AM, the cells were rinsed with Krebs buffer and changes in the intracellular Ca^2+ concentration were monitored by determining the ratio of emitted light intensities at 520 nm in response to excitation at 340 and 380 nm using FLEXstation II (Molecular Devices, Sunnyvale, Calif.). Each well was monitored for 80-120 sec. For testing agonist activity of the compounds, the test compounds were added automatically after 15 sec of baseline measurement. To determine antagonist properties, varying concentrations of the compounds were mixed with a constant concentration of LPA and responses were monitored. Each test was performed in quadruplicate. EC50, IC50, and Ki values were calculated by fitting a sigmoid function to data points with the nonlinear curve-fitting feature of KaleidaGraph (Synergy Software, Essex Junction, Vt.).
Receptor activation using Ca^2+ mobilization assay. The assay for mobilization of intracellular Ca^2+ was performed as described. Briefly, rat hepatoma RH7777 cells stably expressing human LPA1, LPA2, or LPA3, and CHO cells stably expressing LPA4, were loaded with Fura-2 AM (Molecular Probes). Using a FLEXStation (Molecular Devices, Sunnyvale, Calif.), changes in intracellular Ca^2+ concentration were monitored. Ligand-induced changes in fluorescence were monitored for 80-120 seconds. Ca^2+ transients were quantified automatically by calculating the difference between maximum and baseline ratio values for each sample. To determine antagonist properties, different concentrations of each analogue were mixed with either palmitoyl (16:0) or oleoyl (18:1) LPA (200 nM for LPA1 and LPA3, 10 nM for LPA2, and 400 nM for LPA4) (Avanti Polar Lipids, Inc., […], Ala.) and responses were recorded. Each test was performed in quadruplicate. EC50, IC50, and Ki values were calculated as described. The ligand properties of the compounds were evaluated using Ca^2+ mobilization assay for assessing the activation/inhibition of LPA1, LPA2, and LPA3 expressed in RH7777 cells and LPA4 expressed in CHO cells. Table l illustrates calcium responses elicited through the activation of human LPA1, LPA2, LPA3 and LPA4 receptors. These cell lines have been used extensively for the characterization of LPA GPCR ligands because RH7777 cells are intrinsically unresponsive to LPA and CHO cells show minimal endogenous responses to LPA unless transfected with LPA4.

[3] = antagonist mode vs 200 nM LPA, PA = partial antagonist, read-out: LPA1 IC50
[4] = diastereomer study, RH7777 cells, read-out: LPA1 IC50 (Table 2)
[5] = diastereomer study, RH7777 cells, read-out: LPA1 Ki (Table 2)

| Compound | IC50 [1] [nM] | EC50 [1] [nM] | inhibition at 30 µM [1] [%] | Ki ([1]; antagonist mode vs 400 nM LPA) [nM] | EC50 [2] [nM] | IC50 [2, 3] [nM] | Ki ([2]; antagonist mode vs 200 nM LPA, read-out: LPA1 (Ki)) [nM] | IC50 [2, 4] [nM] | Ki [2, 5] [nM] | LPA4 (Emax) [1] | LPA4 ligand type [1] | LPA1 (Emax) [2] | LPA1 ligand type [2] |
| --- | --- | --- | --- | --- | --- | --- | --- | --- | --- | --- | --- | --- | --- |
| CCCCCCCCCCCCCCCC(=O)OC[C@@H](O)CC(Br)P(=O)(O)O (mixture of isomers) [Compound 1, [1-Bromo-3(S)-hydroxyl-4-(palmitoyloxy)butyl]-phosphonate] | 266 | > 30000 | 13.9 | 167 | > 30000 | 1500 ± 559 | 751 | 4520 | 805 |  |  |  |  |
| CCCCCCCCC=CCCCCCCCC(=O)OCC(O)CC(O)P(=O)([O-])O.[Na+] (mixture of isomers) [Compound 22a, reference compound] |  | > 1150 |  |  | > 9250 | > 30000 |  |  |  | (71.7 ± 2.0) | weak LPA4 agonists | (39.1 ± 3.15) |  |
| CCCCCCCCCCCCCCCC(=O)OCC(O)CC(O)P(=O)([O-])O.[Na+] (mixture of isomers) [Compound 22b, reference compound] |  | > 30000 |  |  | > 30000 | > 30000 |  |  |  |  |  |  |  |
| CCCCCCCCCCCCCCCC(=O)OC[C@@H](O)C[C@@H](Br)P(=O)(O)O [Compound 1a] |  |  | 35.1 |  |  |  |  | 648 | 273 |  | Partial Antagonist |  | Antagonist |
| CCCCCCCCCCCCCCCC(=O)OC[C@@H](O)C[C@H](Br)P(=O)(O)O [Compound 1b] |  |  | 33.1 |  |  |  |  | 2080 | 752 |  | Partial Antagonist |  | Antagonist |
| CCCCCCCC/C=C\CCCCCCCC(=O)OCC(O)CCP(=O)(O)O (centres unmarked) [Compound 20a, reference compound] |  | 3900 ± 104 |  |  | > 2520 | > 30000 |  |  |  | (110 ± 1.3) | weak LPA4 agonists | (52.9 ± 11.3) |  |
| CCCCCCCCCCCCCCCC(=O)OC[C@@H](O)CCP(=O)([O-])O.[Na+] [Compound 20b, reference compound] |  | 5400 ± 526 |  |  | > 30000 | > 30000 |  |  |  | (29.3 ± 1.1) | weak LPA4 agonists |  |  |
| CCCCCCCCCCCCCCCC(=O)OCC(O)COP(=O)(O)O (centres unmarked) [LPA (16:0), reference compound] |  | 843 ± 130 |  |  | 90.8 ± 20.9 | > 30000 |  |  |  | (102.4 ± 4.1) |  | (88.7 ± 3.6) |  |
